Test results from PMC4323178 (Journal of thrombosis and haemostasis : JTH, 2011).

Key:
Details in all cases: SEM
DR0301 = DR0301 (Homo sapiens, UniProt P01903+P01911, A100K/A102G/A103R/A169T/F55Y/I96L/K41T/L162R/M171V/P40S/Q125H/Q178H/Q39Y/R42S/S66N/T106N/W38E/Y61H); assay type: binding
DR1501 = DR1501 (Homo sapiens, UniProt P01903+P01911); assay type: binding
HLA-DR0101 = HLA-DR0101 (Homo sapiens, UniProt P01903+P01911, A100R/D57E/F55L/F60I/F76Y/I96L/L162R/M171V/P40L/Q125E/R42F/V115G/Y59C); assay: biochemical

IC50 (DR0301) [µM] | Compound | IC50 (DR1501) [µM] | IC50 (HLA-DR0101) [µM]
50 ± 4 | CC[C@H](C)[C@H](NC(=O)[C@H](CC(N)=O)NC(=O)[C@@H](N)CCC(=O)O)C(=O)N[C@@H](CCC(N)=O)C(=O)N[C@@H](CCCNC(=N)N)C(=O)N[C@@H](Cc1ccccc1)C(=O)N[C@@H](CC(C)C)C(=O)N1CCC[C@H]1C(=O)N[C@@H](CC(N)=O)C(=O)N1CCC[C@H]1C(=O)N[C@@H](C)C(=O)NCC(=O)N[C@H](C(=O)N[C@@H](CCC(N)=O)C(=O)N[C@@H](CC(C)C)C(=O)N[C@@H](CCC(=O)O)C(=O)N[C@@H](CC(=O)O)C(=O)N1CCC[C@H]1C(=O)N[C@@H](CCC(=O)O)C(=O)N[C@@H](Cc1ccccc1)C(=O)O)C(C)C [FVIII589–608] | – | –
– | CC[C@H](C)[C@H](NC(=O)[C@H](CC(N)=O)NC(=O)[C@H](CCC(=O)O)NC(=O)[C@@H](NC(=O)[C@H](CC(C)C)NC(=O)[C@H](Cc1ccc(O)cc1)NC(=O)[C@H](Cc1c[nH]c2ccccc12)NC(=O)[C@H](CO)NC(=O)[C@H](CCCNC(=N)N)NC(=O)[C@H](CC(N)=O)NC(=O)[C@@H](N)CCC(=O)O)[C@@H](C)O)C(=O)N[C@@H](CCC(N)=O)C(=O)N[C@@H](CS)C(=O)N[C@@H](Cc1ccccc1)C(=O)N[C@@H](CC(C)C)C(=O)N1CCC[C@H]1C(=O)N[C@@H](CC(N)=O)C(=O)N1CCC[C@H]1C(=O)N[C@@H](C)C(=O)NCC(=O)O [FVIII581–600,593C] | 56 ± 4 | 50 ± 3
